Source: US5599548A, “Skin care compositions containing fatty acid amides and retinol or retinyl ester” (priority 1995, dated 1997)
Entries after “also recorded” stand apart in the source; their conditions may differ. Where two headings read alike, the source gives them in different places.

Assays:
Human keratinocytes = test: 3H-Thymidine incorporation (keratinocyte proliferation); assay type: cell-based; settings: for activity at 0.001 µM / activity at 0.01 µM / activity at 1 µM / activity at 0.1 µM: Homo sapiens, Keratinocyte, 24 h; for activity at 1 µM: 10^-6 M; for activity at 0.1 µM: 10^-7 M
Outline: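 Neonatal foreskin keratinocytes (second passage, serum-free medium) were plated at 40,000 cells/well and grown to 60–70% confluence. Compounds were added in triplicate 24 h after a medium change, with 1 μCi 3H-thymidine 4 h later, followed by a further 24 h incubation. TCA-precipitated label was counted by liquid scintillation and expressed as DPM/μg protein.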

[1] = system: TGase I (keratinocyte transglutaminase level); test: Transglutaminase (TGase I) ELISA assay (keratinocyte differentiation); assay type: cell-based, human
Outline: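 Neonatal foreskin keratinocytes plated at 3,000 cells/well, treated with compounds after 4 days for 72 h, then freeze-fractured. TGase I measured by ELISA (mouse anti-human TGase primary, peroxidase anti-mouse secondary, o-phenylene diamine substrate, A492). Secondary-only background was subtracted; values are means ±s.d. of replicates.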

[2] = Table 7A, n = 9, read-out: mean Thymidine incorp/μg protein ± s.d
[3] = Table 7A, n = 9, read-out: thymidine incorporation, % control

CCCCC/C=C\C/C=C\CCCCCCCC(=O)N(CCO)CCO [linoleoyl-DEA, Linoleoyl-Diethanolamide]
activity at 0.001 µM (Human keratinocytes; Table 2A, RA, ROH 2.5 × 10^-8 M, linoleoyl-DEA 10^-9 M, alone or combined, n = 9, read-out: thymidine incorporation, % control): 105%
activity at 0.001 µM (Human keratinocytes; Table 2A, RA, ROH 2.5 × 10^-8 M, linoleoyl-DEA 10^-9 M, alone or combined, normalized to ethanol control, n = 9, read-out: mean Thymidine incorp./μg protein ± s.d): 105 ± 15.8%
activity at 0.01 µM (Human keratinocytes; Table 3A, RA 2.5 × 10^-9 M, RP 2.5 × 10^-7 M, linoleoyl-DEA 10^-8 M, alone or combined, n = 3, read-out: thymidine incorporation, % control): 99%
activity at 1 µM (Human keratinocytes; [2]): 60.7 ± 8%
activity at 1 µM (Human keratinocytes; [3]): 61%
activity at 0.1 µM (Human keratinocytes; [2]): 101 ± 7.5%
activity at 0.1 µM (Human keratinocytes; [3]): 101%
activity at 0.01 µM (Human keratinocytes; Table 7A, 10^-8 M, n = 9, read-out: mean Thymidine incorp/μg protein ± s.d): 114 ± 20.6%
activity at 0.01 µM (Human keratinocytes; Table 7A, 10^-8 M, n = 9, read-out: thymidine incorporation, % control): 114%
activity at 0.001 µM (Human keratinocytes; Table 7A, 10^-9 M, n = 9, read-out: mean Thymidine incorp/μg protein ± s.d): 105 ± 15.8%
activity at 0.001 µM (Human keratinocytes; Table 7A, 10^-9 M, n = 9, read-out: thymidine incorporation, % control): 105%
mean Thymidine incorp./μg protein ± s.d (Human keratinocytes; Table 3A, RA 2.5 × 10^-9 M, RP 2.5 × 10^-7 M, linoleoyl-DEA 10^-8 M, alone or combined, n = 3): 1692 ± 48 DPM/μg protein
effect on keratinocyte proliferation, in words (Human keratinocytes; concentrations as in the respective Example): minor, non-significant stimulatory effect on keratinocyte proliferation; also recorded: no effect on keratinocyte proliferation
activity at 1 µM ([1]; Homo sapiens, Keratinocyte, 72 h, Table 2B, RA, ROH 2.5 × 10^-7 M, linoleoyl-DEA 10^-6 M, alone or combined, 72 h, n = 9, read-out: TGase (TG1) level, % control): 59%
activity at 1 µM ([1]; Homo sapiens, Keratinocyte, Table 3B, RA, RP 2.5 × 10^-7 M, linoleoyl-DEA 10^-6 M, alone or combined, n = 3, read-out: TGase (TG1) level, % control): 85%
activity at 1 µM ([1]; Homo sapiens, Keratinocyte, Table 8A, 10^-6 M, n = 3, read-out: TGase, % control): 87%
activity at 0.1 µM ([1]; Homo sapiens, Keratinocyte, Table 8A, 10^-7 M, n = 3, read-out: TGase, % control): 80%
activity at 0.01 µM ([1]; Homo sapiens, Keratinocyte, Table 8A, 10^-8 M, n = 3, read-out: TGase, % control): 86%
activity at 0.001 µM ([1]; Homo sapiens, Keratinocyte, Table 8A, 10^-9 M, n = 3, read-out: TGase, % control): 85%
activity at 1 µM ([1]; Homo sapiens, Keratinocyte, Table 8B, 10^-6 M, n = 3, read-out: TGase, % control): 37%
activity at 0.0001 µM ([1]; Homo sapiens, Keratinocyte, Table 8B, 10^-10 M, n = 3, read-out: TGase, % control): 66%
mean TGase ± s.d ([1]; Table 2B, RA, ROH 2.5 × 10^-7 M, linoleoyl-DEA 10^-6 M, alone or combined, 72 h, normalized to ethanol control, n = 9): 0.594 ± 0.773
mean TGase ± s.d ([1]; Table 3B, RA, RP 2.5 × 10^-7 M, linoleoyl-DEA 10^-6 M, alone or combined, n = 3): 0.186 ± 0.058
mean TGase ± s.d ([1]; Table 8A, 10^-6 M, n = 3): 0.186 ± 0.058
mean TGase ± s.d ([1]; Table 8A, 10^-7 M, n = 3): 0.175 ± 0.059
mean TGase ± s.d ([1]; Table 8A, 10^-8 M, n = 3): 0.188 ± 0.046
mean TGase ± s.d ([1]; Table 8A, 10^-9 M, n = 3): 0.185 ± 0.031
mean TGase ± s.d ([1]; Table 8B, 10^-6 M, n = 3): 0.037 ± 0.008
mean TGase ± s.d ([1]; Table 8B, 10^-10 M, n = 3): 0.080 ± 0.030
